Key:
[1] = test system: mouse triple-negative breast cancer EMT6 cell line; assay: In-vivo drug efficacy study 1: EMT6 transplanted BALB/c mouse model, tumor volume; details: for Tumor volume Day 0: Day 0 (start of dosing)
Protocol: To evaluate the tumor immunotherapeutic effect of test drugs in the mouse triple-negative breast cancer EMT6 cell line (EMT6 is from ATCC, cell No.: CRL-2755) transplanted BALB/c mouse model.
BALB/c mice, female, 6-7 weeks old, weighing about 19.1-22.6 g, were housed in separated ventilated boxes with constant temperature and humidity. The feeding room was under the following conditions: temperature: 20-26° C., humidity: 40-70%, ventilation: 10-20 times/h, and light/dark cycle: 12 h/12 h. The Co-60 radiation-sterilized complete pellet feed for mice was supplied continuously and can be taken freely without limitation, and the drinking tap water (used after autoclaving) was supplied continuously by the water bottle and can be taken freely. A total of 144 mice purchased from Shanghai Lingchang Biotechnology Co., Ltd. were used for the study. The BALB/c mice were inoculated with EMT6 cells subcutaneously to establish murine breast cancer models with subcutaneously-transplanted tumors. The mice were administered when the mean tumor volume reached about 97.3 mm^3. The test compounds were administered orally once every 3 days at a dose of 50 mg/kg. PD1 mAb (from BioXcell, cat No.: BP0146, batch No.: 695318A1B, clone No.: RMP1-14) was administered intraperitoneally once every 3 days at a dose of 10 mg/kg. Tumor volume was measured every 3 days with a two-dimensional caliper, and the volume was measured in mm^3 and calculated according to the following formula: V=0.5 a×b^2, where a and b are the long and short diameters, respectively, of the tumor. Anti-tumor efficacy was determined by dividing the mean tumor increase volume of compound-treated animals by the mean tumor increase volume of untreated animals.

[2] = test system: mouse colon cancer MC38 cell line; assay: In vivo efficacy study 2: MC38 transplanted BALB/c mouse model, tumor volume; details: combination Example 2 50 mg/kg orally twice a week + Anti-PD1 10 mg/kg intravenously once a week, MC38, BALB/c mice
Text: To evaluate the tumor immunotherapeutic effect of test drugs in the mouse colon cancer MC38 cell line (from Obio Technology (Shanghai) Co., Ltd.) transplanted BALB/c mouse model.
BALB/c mice, female, 6-7 weeks old, weighing about 18-22 g, were kept in a special pathogen-free environment and in separated ventilated cages (3-5 mice per cage). All cages, bedding and water were disinfected prior to use. All animals had free access to standard certified commercial laboratory diets. A total of 48 mice purchased from Shanghai Slac Laboratory Animal Co., Ltd. were enrolled. Each mouse was implanted subcutaneously in the right flank with mouse colon cancer MC38 cells (2×10^5 cells in 0.1 mL of phosphate buffered saline) for tumor growth. The mice were administered when the mean tumor volume reached about 70 mm^3. Test compounds were administered orally twice a week (morning and afternoon) at a dose of 50 mg/kg; PD-1 antibody (from BioXcell, cat. No.: BP0146, batch No.: 640517M2B) was administered intravenously once a week at a dose of 10 mg/kg. Tumor volume was measured […] with a two-dimensional caliper, and the volume was measured in mm^3 and calculated according to the following formula: V=0.5 a×b^2, where a and b are the long and short diameters, respectively, of the tumor. Anti-tumor efficacy was determined by dividing the mean tumor increase volume of compound-treated animals by the mean tumor increase volume of untreated animals.

[3] = Example 2 alone, 50 mg/kg orally once every 3 days, EMT6 subcutaneous, BALB/c mice
[4] = combination Example 2 50 mg/kg orally + Anti-PD1 10 mg/kg intraperitoneally, each once every 3 days, EMT6, BALB/c mice

CN[C@@H](C)C(=O)N[C@H](C(=O)N1CCC[C@H]1Cn1cc(C(C)=O)c2cc(Cl)ccc21)C1CCCCC1 [Example 2]
Tumor volume Day 0 [1, 3]: 97.3 mm^3 | Tumor volume Day 7 [1, 3]: 355.5 mm^3 | Tumor volume Day 14 [1, 3]: 1097.7 mm^3 | Tumor volume Day 25 [1, 3]: 2225.8 mm^3 | Tumor volume Day 0 [1, 4]: 97.3 mm^3 | Tumor volume Day 7 [1, 4]: 332.4 mm^3 | Tumor volume Day 14 [1, 4]: 174.2 mm^3 | Tumor volume Day 25 [1, 4]: 31.5 mm^3 | Tumor volume Day 0 ([2]; Day 0 (start of dosing)): 51.6 mm^3 | Tumor volume Day 5 ([2]; Day 5): 140.7 mm^3 | Tumor volume Day 12 ([2]; Day 12): 215.5 mm^3 | Tumor volume Day 20 ([2]; Day 20): 427.1 mm^3

Reference: US20220175917A1, “COMBINATION OF IAP INHIBITOR AND IMMUNE CHECKPOINT INHIBITOR” (CHIA TAI TIANQING PHARMACEUTICAL GROUP CO., LTD., priority 2019, published 2022)
